Earlier results as cited in patent publication US20070071818A1 (ARDANA BIOSCIENCE LIMITED, priority 2002, published 2007).
Structures can show the parent of a compound that is named as a salt.

What was measured:
female sexual response = details: female sexual dysfunction
erectile response = details: oral administration; psychogenic patient
[1] = test system: female sexual arousal disorder; details: oral; menopausal women with female sexual arousal disorder

CCCc1nn(C)c2c(=O)[nH]c(-c3cc(S(=O)(=O)N4CCN(C)CC4)ccc3OCC)nc12 [sildenafil]
subjective and physiologic parameters of the female sexual response (female sexual response): significantly improve

CN1CCc2cccc3c2[C@H]1Cc1ccc(O)c(O)c1-3 [apomorphine, (6aR)-5,6,6a,7-Tetrahydro-6-methyl-4H-dibenzo[de,g]quinoline-10,11-diol hydrochloride hemihydrate]
erectile response (erectile response): induce an erection

Cc1ccc(N(CC2=NCCN2)c2cccc(O)c2)cc1 [phentolamine]
effect across all measures of arousal [1]: mild positive effect
